Experimental data taken from patent US10517861B2, “Biomarkers for predicting and assessing responsiveness of endometrial cancer subjects to lenvatinib compounds” (Eisai R&D Management Co., Ltd., priority 2013, dated 2019).

What was measured:
[1] = system: patients with advanced or recurrent endometrial cancer (EC); assay: Phase II study of E7080 in patients with advanced or recurrent endometrial cancer: tumor response (ORR) and survival (PFS, OS); assay type: in vivo, human
Experimental: Purpose: Angiogenesis is regulated by signaling through multiple growth factor receptors, such as VEGF receptor and FGF receptor. VEGF receptor signaling is also associated with immune cell function. E7080 is an oral angiogenesis inhibitor targeting multiple receptor tyrosine kinase; VEGFR1-3, FGFR1-4, RET, KIT, and PDGFRβ. A phase II study was performed in patients with advanced or recurrent endometrial cancer (EC) following 1 or 2 prior platinum-based treatments (Tx). The importance of angiogenesis in EC highlights the need to understand clinical mechanisms of escape from anti-angiogenic therapy. This clinical biomarker analysis was conducted to identify predictive markers of clinical benefit in EC patients upon E7080 treatment. Circulating cytokine and angiogenic factors (CAFs) can be measured in blood samples using ELISA and multiplex assay platforms. The CAFs examined in this study are listed below in Table 2. Numbers in parenthesis indicate bead region for each analyte.
(§1) The purpose of this analysis was to measure cytokine, chemokine and angiogenic factors in blood samples, such as plasma and serum, obtained from patients in clinical trials at both pre- and post-treatment with E7080 and to identify blood biomarkers which can be used to predict whether patients will respond to treatment with E7080. For these analyses, the following criteria of response were employed, namely:
(a) Tumor response: objective response rate (ORR) and % of maximum tumor shrinkage (MTS); and
(b) Survival Benefits: progression free survival (PFS)/overall survival (OS).
Materials and Methods: Patients who had metastatic/unresectable endometrial cancer after 1 or 2 prior platinum-based treatments received lenvatinib until disease progression or development of unmanageable toxicities. Patients received E7080 at a starting dose of 24 mg orally once daily in 28 day cycles. 133 patients were treated and evaluated for efficacy and molecular correlative analysis. This study was a part of the Phase 2 multicenter study of lenvatinib (ClinicalTrial.gov Identifier: NCT01111461). Baseline and post-treatment plasma samples were collected for molecular analyses. Plasma samples were collected at Cycle 1 Day 1 (pre-treatment) and Cycle 2 Day 1 (i.e., day […] post-treatment). Six mL of intravenous blood was drawn into EDTA vacutainer tubes. The tubes were gently inverted 6-8 times and then centrifuged at 3000 RPM for 10 minutes to separate the plasma from the red cell layer. Plasma was collected from the tube and dispensed into a 3.5 mL cryovial using a transfer pipette, and then stored immediately at −20° C. The plasma samples were shipped on dry ice and then ultimately transferred to −80° C. storage. Plasma samples from 122 patients were used for blood biomarker analysis. Serum from Cycle 1 day 1 (baseline), and cycle 2 day 1 were used in this analysis. The association of progression free survival (PFS) and overall survival (OS) were analyzed. Plasma samples were tested in batch format where all timepoints from the same subject were assayed on the same day. On the day of assay, samples were removed from −80° C. and allowed to thaw and reach room temperature. The plasma samples were tested in a panel of ELISA and multiplex kit as per the manufacturer's instructions. The ELISA plates were measured using a Molecular Devices UVmax kinetic microplate reader with SoftMax Pro 5.2 software. The multiplex assays were performed using the Bio-Rad Bio-Plex system with Bio-Plex Manager 4.1 software. Final protein concentrations (pg/mL) were calculated from the standard curve for each assay. Depending on the assay, plasma samples may have been diluted in assay buffer prior to testing. In these cases, protein concentrations were multiplied by the dilution factor.
A cut-off value of Ang-2 was used to test if patients with baseline Ang-2 levels have better clinical outcomes, such as ORR, PFS, and OS. […]

[2] = system: cytokine, chemokine and angiogenic factors (CAFs); assay: Plasma cytokine, chemokine and angiogenic factor (CAF) levels pre- and post-treatment with E7080 (ELISA and multiplex); assay type: in vivo, human; details: cycle 2 day 1 vs cycle 1 day 1 (baseline), 122 patients
Description: as §1
Materials and Methods: Patients who had metastatic/unresectable endometrial cancer after 1 or 2 prior platinum-based treatments received lenvatinib until disease progression or development of unmanageable toxicities. Patients received E7080 at a starting dose of 24 mg orally once daily in 28 day cycles. 133 patients were treated and evaluated for efficacy and molecular correlative analysis. This study was a part of the Phase 2 multicenter study of lenvatinib (ClinicalTrial.gov Identifier: NCT01111461). Baseline and post-treatment plasma samples were collected for molecular analyses. […] The association of progression free survival (PFS) and overall survival (OS) were analyzed. […] The ELISA plates were measured using a Molecular Devices UVmax kinetic microplate reader with SoftMax Pro 5.2 software. […] Final protein concentrations (pg/mL) were calculated from the standard curve for each assay. […]

[3] = sub-group with high baseline Ang-2 (>2082 pg/ml), 98 patients
[4] = sub-group with low baseline Ang-2 (<2082 pg/ml), 24 patients
[5] = without stratification based on Ang-2 levels

## COc1cc2nccc(Oc3ccc(NC(=O)NC4CC4)c(Cl)c3)c2cc1C(N)=O [E7080, 4-(3-chloro-4-(cyclopropylaminocarbonyl)aminophenoxy)-7-methoxy-6-quinolinecarboxamide]
[1]; Full Set Analysis (N = 133)
  Progression-Free Survival (months) Median: 5.4 months
[1]; Full Set Analysis (N = 133), 24 mg orally once daily
  Objective Response (CR + PR): 21.8%
[1]; High Ang-2 ≥2082.51 (N = 98)
  Objective Response (CR + PR): 17.8%
  Overall Survival (months) Median: 8.9 months
  Progression-Free Survival (months) Median: 3.7 months
[1]; Low Ang-2 <2082.51 (N = 24)
  Objective Response (CR + PR): 60.9%
  Progression-Free Survival (months) Median: 9.5 months
[1]; baseline ANG2(90), 0-25% subgroup
  Median PFS: 225 days
[1]; baseline ANG2(90), 1st (low) quartile
  mOS (day) in each quartile: 541 days
[1]; baseline ANG2(90), 2nd quartile
  mOS (day) in each quartile: 353 days
[1]; baseline ANG2(90), 3rd quartile
  mOS (day) in each quartile: 256 days
[1]; baseline ANG2(90), 4th (high) quartile
  mOS (day) in each quartile: 260 days
[1]; baseline ANG2(90), 25-50% subgroup
  Median PFS: 167 days
[1]; baseline ANG2(90), 50-75% subgroup
  Median PFS: 145 days
[1]; baseline ANG2(90), 75-100% subgroup
  Median PFS: 77 days
[1]; baseline Ang-2, 0-25% subgroup
  Median PFS: 284 days
[1]; baseline Ang-2, 1st (low) quartile
  mOS (day) in each quartile: 541 days
[1]; baseline Ang-2, 2nd quartile
  mOS (day) in each quartile: 289 days
[1]; baseline Ang-2, 3rd quartile
  mOS (day) in each quartile: 268 days
[1]; baseline Ang-2, 4th (high) quartile
  mOS (day) in each quartile: 173 days
[1]; baseline Ang-2, 25-50% subgroup
  Median PFS: 167 days
[1]; baseline Ang-2, 50-75% subgroup
  Median PFS: 112 days
[1]; baseline Ang-2, 75-100% subgroup
  Median PFS: 77 days
[1]; baseline HGF(86), 0-25% subgroup
  Median PFS: 225 days
[1]; baseline HGF(86), 1st (low) quartile
  mOS (day) in each quartile: 567 days
[1]; baseline HGF(86), 2nd quartile
  mOS (day) in each quartile: 452 days
[1]; baseline HGF(86), 3rd quartile
  mOS (day) in each quartile: 273 days
[1]; baseline HGF(86), 4th (high) quartile
  mOS (day) in each quartile: 253 days
[1]; baseline HGF(86), 25-50% subgroup
  Median PFS: 205 days
[1]; baseline HGF(86), 50-75% subgroup
  Median PFS: 145 days
[1]; baseline HGF(86), 75-100% subgroup
  Median PFS: 109 days
[1]; baseline IL-8(40), 0-25% subgroup
  Median PFS: 281 days
[1]; baseline IL-8(40), 2nd quartile
  mOS (day) in each quartile: 315 days
[1]; baseline IL-8(40), 3rd quartile
  mOS (day) in each quartile: 340 days
[1]; baseline IL-8(40), 4th (high) quartile
  mOS (day) in each quartile: 127 days
[1]; baseline IL-8(40), 25-50% subgroup
  Median PFS: 222 days
[1]; baseline IL-8(40), 50-75% subgroup
  Median PFS: 145 days
[1]; baseline IL-8(40), 75-100% subgroup
  Median PFS: 71 days
[1]; baseline IP-10(56), 0-25% subgroup
  Median PFS: 167 days
[1]; baseline IP-10(56), 25-50% subgroup
  Median PFS: 174 days
[1]; baseline IP-10(56), 50-75% subgroup
  Median PFS: 220 days
[1]; baseline IP-10(56), 75-100% subgroup
  Median PFS: 77 days
[1]; baseline MCP-1(58), 0-25% subgroup
  Median PFS: 227 days
[1]; baseline MCP-1(58), 1st (low) quartile
  mOS (day) in each quartile: 463 days
[1]; baseline MCP-1(58), 2nd quartile
  mOS (day) in each quartile: 393 days
[1]; baseline MCP-1(58), 3rd quartile
  mOS (day) in each quartile: 340 days
[1]; baseline MCP-1(58), 4th (high) quartile
  mOS (day) in each quartile: 192 days
[1]; baseline MCP-1(58), 25-50% subgroup
  Median PFS: 155 days
[1]; baseline MCP-1(58), 50-75% subgroup
  Median PFS: 167 days
[1]; baseline MCP-1(58), 75-100% subgroup
  Median PFS: 111 days
[1]; baseline MIP-1a(64), 2nd quartile
  mOS (day) in each quartile: 293 days
[1]; baseline MIP-1a(64), 3rd quartile
  mOS (day) in each quartile: 353 days
[1]; baseline MIP-1a(64), 4th (high) quartile
  mOS (day) in each quartile: 264 days
[1]; baseline MIP-la(64), 0-25% subgroup
  Median PFS: 210 days
[1]; baseline MIP-la(64), 25-50% subgroup
  Median PFS: 155 days
[1]; baseline MIP-la(64), 50-75% subgroup
  Median PFS: 117 days
[1]; baseline MIP-la(64), 75-100% subgroup
  Median PFS: 166 days
[1]; baseline PGF(91), 0-25% subgroup
  Median PFS: 170 days
[1]; baseline PGF(91), 2nd quartile
  mOS (day) in each quartile: 350 days
[1]; baseline PGF(91), 3rd quartile
  mOS (day) in each quartile: 393 days
[1]; baseline PGF(91), 4th (high) quartile
  mOS (day) in each quartile: 173 days
[1]; baseline PGF(91), 25-50% subgroup
  Median PFS: 174 days
[1]; baseline PGF(91), 50-75% subgroup
  Median PFS: 218 days
[1]; baseline PGF(91), 75-100% subgroup
  Median PFS: 77 days
[1]; baseline TNFa(80), 0-25% subgroup
  Median PFS: 282 days
[1]; baseline TNFa(80), 1st (low) quartile
  mOS (day) in each quartile: 654 days
[1]; baseline TNFa(80), 2nd quartile
  mOS (day) in each quartile: 353 days
[1]; baseline TNFa(80), 3rd quartile
  mOS (day) in each quartile: 393 days
[1]; baseline TNFa(80), 4th (high) quartile
  mOS (day) in each quartile: 218 days
[1]; baseline TNFa(80), 25-50% subgroup
  Median PFS: 117 days
[1]; baseline TNFa(80), 50-75% subgroup
  Median PFS: 166 days
[1]; baseline TNFa(80), 75-100% subgroup
  Median PFS: 112 days
[1]; baseline Tie-2, 0-25% subgroup
  Median PFS: 273 days
[1]; baseline Tie-2, 1st (low) quartile
  mOS (day) in each quartile: 541 days
[1]; baseline Tie-2, 2nd quartile
  mOS (day) in each quartile: 282 days
[1]; baseline Tie-2, 3rd quartile
  mOS (day) in each quartile: 291 days
[1]; baseline Tie-2, 4th (high) quartile
  mOS (day) in each quartile: 192 days
[1]; baseline Tie-2, 25-50% subgroup
  Median PFS: 165 days
[1]; baseline Tie-2, 50-75% subgroup
  Median PFS: 155 days
[1]; baseline Tie-2, 75-100% subgroup
  Median PFS: 112 days
[1]; baseline VEGFA(100), 0-25% subgroup
  Median PFS: 158 days
[1]; baseline VEGFA(100), 1st (low) quartile
  mOS (day) in each quartile: 350 days
[1]; baseline VEGFA(100), 2nd quartile
  mOS (day) in each quartile: 541 days
[1]; baseline VEGFA(100), 3rd quartile
  mOS (day) in each quartile: 365 days
[1]; baseline VEGFA(100), 4th (high) quartile
  mOS (day) in each quartile: 260 days
[1]; baseline VEGFA(100), 25-50% subgroup
  Median PFS: 205 days
[1]; baseline VEGFA(100), 50-75% subgroup
  Median PFS: 165 days
[1]; baseline VEGFA(100), 75-100% subgroup
  Median PFS: 83 days
[1]; baseline sIL-2Ra(76), 0-25% subgroup
  Median PFS: 210 days
[1]; baseline sIL-2Ra(76), 1st (low) quartile
  mOS (day) in each quartile: 562 days
[1]; baseline sIL-2Ra(76), 2nd quartile
  mOS (day) in each quartile: 295 days
[1]; baseline sIL-2Ra(76), 3rd quartile
  mOS (day) in each quartile: 387 days
[1]; baseline sIL-2Ra(76), 4th (high) quartile
  mOS (day) in each quartile: 161 days
[1]; baseline sIL-2Ra(76), 25-50% subgroup
  Median PFS: 161 days
[1]; baseline sIL-2Ra(76), 50-75% subgroup
  Median PFS: 177 days
[1]; baseline sIL-2Ra(76), 75-100% subgroup
  Median PFS: 72.5 days
[1]; sub-group with high baseline Ang-2 (>2082 pg/ml)
  ORR: 18%
[1]; [3]
  mean OS: 8.9 months
  mean PFS: 3.7 months
[1]; sub-group with low baseline Ang-2 (<2082 pg/ml)
  ORR: 61%
[1]; [4]
  mean OS: 23 months
  mean PFS: 9.5 months
[1]; [5]
  ORR: 21.1%
  mOS: 10.6 months
  mPFS: 5.4 months
[2]
  changes in levels of CAFs at post-treatment compared to pre-treatment: Significant changes in levels of 19 CAFs among 50 CAFs tested
